Among the test systems are OVCAR-8 ovarian; HOP-62 NSCLC; RPMI-8226 leukemia; MCF7 breast; NCI-H522 lung; HCT-15 colon; NCI-H460 lung; KM12 colon; SF-295 CNS; TK-10 renal.
Holding throughout (test): NCI tumour cell line growth inhibition, 48 h

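Cultured in 96-well plates, cells were exposed to test compound for 48 hours across five concentrations. GI50 = concentration required for 50% inhibition of growth. TGI: concentration producing complete growth inhibition.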 Some results are limits rather than exact numbers.

As for `O=S(=O)(/N=c1\scc(-c2ccccc2)n1-c1ccccc1)c1ccc(N2N=C3c4ccccc4CC3C2c2ccc(Cl)cc2)cc1` (stereo not given), the GI50 in the assay with OVCAR-8 ovarian is 36.1 µM; in the assay on HOP-62 NSCLC, 93.9 µM; in the assay on RPMI-8226 leukemia, 21.5 µM; with MCF7 breast, above 100 µM; in the assay with NCI-H522 lung, 22.7 µM; in the assay on HCT-15 colon it was 47.7 µM. Moreover, the GI50 with NCI-H460 lung was above 100 µM; in the assay on KM12 colon, 19.9 µM; with SF-295 CNS, 40.7 µM; with TK-10 renal, 29.6 µM. Besides, the TGI with OVCAR-8 ovarian was above 100 µM; with HOP-62 NSCLC, above 100 µM; in the assay with RPMI-8226 leukemia it was above 100 µM; in the assay with MCF7 breast, above 100 µM; in the assay with NCI-H522 lung it was 82.3 µM; in the assay on HCT-15 colon, above 100 µM. In addition, the TGI with NCI-H460 lung was above 100 µM; in the assay with KM12 colon, 89 µM; with SF-295 CNS it was above 100 µM; in the assay on TK-10 renal it was above 100 µM.

In the case of `O=C(Oc1cccnc1)c1cccnc1Nc1ccnc(C(F)(F)F)c1`, the GI50 is 64.9 µM in the assay on OVCAR-8 ovarian; 13.7 µM in the assay on HOP-62 NSCLC; 3.94 µM with RPMI-8226 leukemia; 2.68 µM in the assay with MCF7 breast; 14.5 µM in the assay on NCI-H522 lung; 27.2 µM in the assay on HCT-15 colon. The GI50 in the assay with NCI-H460 lung is 40.4 µM; in the assay on KM12 colon it was 4.01 µM; in the assay on SF-295 CNS, 44.4 µM; in the assay on TK-10 renal, 17.2 µM. Further, the TGI in the assay with OVCAR-8 ovarian was above 100 µM; in the assay with HOP-62 NSCLC it was 36 µM; in the assay with RPMI-8226 leukemia, 23.7 µM; in the assay on MCF7 breast, above 100 µM; in the assay on NCI-H522 lung it was above 100 µM; with HCT-15 colon it was above 100 µM. In addition, the TGI was above 100 µM in the assay on NCI-H460 lung, 18.2 µM in the assay on KM12 colon, above 100 µM with SF-295 CNS and above 100 µM in the assay on TK-10 renal.

For the compound `CCC1(O)C(=O)OCc2c1cc1n(c2=O)Cc2cc3ccccc3nc2-1` (stereo not given), the TGI with OVCAR-8 ovarian was 15.7 µM; in the assay with HOP-62 NSCLC it was 0.319 µM; in the assay on RPMI-8226 leukemia, 1.89 µM; in the assay on MCF7 breast it was 2.06 µM; in the assay on NCI-H522 lung it was 3.89 µM; in the assay on HCT-15 colon, 17.1 µM. Also, the TGI in the assay with NCI-H460 lung is 10.7 µM; in the assay with KM12 colon, above 100 µM; in the assay on SF-295 CNS it was 0.226 µM; in the assay on TK-10 renal, 50.5 µM.

On to `COc1ccc(-c2noc(C(=O)O)c2-c2cc(OC)c(OC)c(OC)c2)cc1`, for which the GI50 in the assay with OVCAR-8 ovarian was 5.61 µM; in the assay with HOP-62 NSCLC, 3.82 µM; in the assay with RPMI-8226 leukemia, 4.01 µM; in the assay with MCF7 breast it was 1.34 µM; in the assay on NCI-H522 lung it was 1.59 µM; in the assay on HCT-15 colon, 0.881 µM. Moreover, the GI50 in the assay with NCI-H460 lung is 2.52 µM; in the assay on KM12 colon, 0.595 µM; in the assay with SF-295 CNS, 1.57 µM; in the assay on TK-10 renal it was above 100 µM. Besides, the TGI in the assay on OVCAR-8 ovarian, in the assay with HOP-62 NSCLC, with RPMI-8226 leukemia, in the assay with MCF7 breast, in the assay with NCI-H522 lung and in the assay with HCT-15 colon was above 100 µM throughout. Moreover, the TGI in the assay with NCI-H460 lung, with KM12 colon, with SF-295 CNS and in the assay on TK-10 renal was above 100 µM in each case.

These data come from PubChem BioAssay (NCI).
